Assay results published in PMC7466040, “Sevanol and Its Analogues: Chemical Synthesis, Biological Effects and Molecular Docking” (Pharmaceuticals, 2020).

Tests used:
ICR male mice = assay: Complete Freund's adjuvant-induced thermal hyperalgesia (hot plate); format: in vivo; conditions: hot plate 53 °C
Experimental: Specific pathogen-free outbred ICR male mice (6 to 8 weeks old, weighing 29 to 33 g) were obtained from the Animal Breeding Facility of the Branch of the Shemyakin-Ovchinnikov Institute of Bioorganic Chemistry of the Russian Academy of Sciences (Pushchino). The animals were acclimatized for 2 weeks before the experimental procedures, and were kept in two-corridor barrier rooms under a controlled environment: a temperature of 20 to 24 °C, a relative humidity of 30% to 60%, and a 12 h light cycle. The animals were housed in Type 3 standard polycarbonate cages (820 cm2) on bedding (LIGNOCEL BK 8/15, JRS, Germany), with ad libitum access to feed (SSNIFF V1534-300, Spezialdiaeten, GmbH) and filtered tap water. The mouse cages were also supplied with material for environmental enrichment, i.e., Mouse House (Techniplast, Italy). Sevanol or the vehicle was administered intravenously, intranasally and orally (30 min before testing).
The development of the inflammation and thermal hyperalgesia of the paw was induced by the injection of the oil/saline (1:1) CFA emulsion into the dorsal surface of the hind paw of the mice (20 μL/paw) 24 h before the measurement. Saline (20 μL) was injected into the control mice. The inflamed paw withdrawal latencies to thermal stimulation were measured on a hot plate device (Hot Plate Analgesia Meter, Columbus Instruments) with a set temperature of 53 ± 0.1 °C and a cut-off time of 60 s.
Figure 5 The analgesic and anti-inflammatory effects of sevanol following intravenous, intranasal and per os administration. The effect of sevanol on the acetic acid induced writhing (A–C) and on the mice withdrawal latency on a hot plate in the thermal hyperalgesia test after CFA injection (D–F) upon intravenous (A,D), intranasal (B,E) and oral (C,F) administration. […] The results are presented as the mean ± SD (n = 6–10). The p-values of the sevanol groups vs. the saline group are based on an analysis of variance and on Tukey’s test; * p < 0.05, ** p < 0.005, *** p < 0.001.

rat ASIC1a = target: T1, rat ASIC1a (Rattus norvegicus, UniProt P55926); assay: Two-electrode voltage clamp on X. laevis oocytes expressing rat ASIC1a; format: cell-based
T1 construct: expressed in transfected cells; host or cells: Xenopus laevis oocytes (cRNA injection)
T1 sequence (P55926 1-526): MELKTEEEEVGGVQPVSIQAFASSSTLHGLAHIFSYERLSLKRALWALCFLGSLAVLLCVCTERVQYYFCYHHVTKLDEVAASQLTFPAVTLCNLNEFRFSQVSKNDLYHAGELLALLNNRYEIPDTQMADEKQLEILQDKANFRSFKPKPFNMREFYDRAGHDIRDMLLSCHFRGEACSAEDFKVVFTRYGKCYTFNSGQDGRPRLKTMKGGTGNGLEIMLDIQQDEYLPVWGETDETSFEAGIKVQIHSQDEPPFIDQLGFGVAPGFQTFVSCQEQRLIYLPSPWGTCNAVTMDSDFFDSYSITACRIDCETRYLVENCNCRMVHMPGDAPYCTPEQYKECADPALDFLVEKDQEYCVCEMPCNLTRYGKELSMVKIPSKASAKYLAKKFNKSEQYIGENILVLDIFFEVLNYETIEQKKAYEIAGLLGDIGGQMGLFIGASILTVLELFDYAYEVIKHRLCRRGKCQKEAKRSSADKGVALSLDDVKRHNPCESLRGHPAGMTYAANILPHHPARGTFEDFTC
Experimental: Testing the activity of synthetic sevanol (s706) (as a mixture of 75% of sevanol and 25% of isosevanol) and its analogues (s590, EA, and s788) was carried out by the standard two-electrode voltage clamp method on X. laevis oocytes expressing rat ASIC1a and ASIC3 channels. The activation of the channels was performed using a rapid change of the solution from conditioning pH 7.4 to a solution with pH 5.5. Sevanol and its two analogues, s590 and EA, inhibited ASIC1a and ASIC3 channels.
Oocytes were harvested from female frogs anaesthetized with tricaine methane sulfonate (MS222) (0.17% solution), and the surgery was performed in an ice bath to avoid heavy bleeding. Defolliculated stage IV and V cells were injected with 2.5 and 10 ng cRNA, synthesized from PCi plasmids containing the rat ASIC1a and rat ASIC3 isoforms, respectively, using the Nanoliter 2000 microinjection system (World Precision Instruments, USA). The injected oocytes were kept for 2–3 days at 17 to 19 °C, and then for up to 5 days at 15 °C in a ND96 medium containing (in mM) 96 NaCl, 2 KCl, 1.8 CaCl2, 1 MgCl2, and 5 HEPES titrated to pH 7.4 with NaOH supplemented with gentamycin (50 μg/mL). Two-electrode voltage clamp recordings were performed at a holding potential of −50 mV using a GeneClamp 500 amplifier (Axon Instruments), and the data were filtered at 20 Hz and digitized at 100 Hz by an AD converter L780 (LCard, Russia). Microelectrodes were filled with 3 M KCl. The conditioning bath solution was ND96; the pH was adjusted to 7.4. The activating test solution was constructed based on the ND-96 buffer, in which 5 mM HEPES was replaced with 10 mM MES and pH was adjusted to 5.5. A computer-controlled valve system was used to achieve a rapid solution exchange in the recording chamber. A four parameter logistic equation was used for the curve-fitting analysis: F(x) = ((a1 − a2)/(1 + (x/x0)n)) + a2, where x is the concentration of the compound; F(x) is the response value at a given concentration of the compound; a1 is the control response value (fixed at 100%); x0 is the IC50 value; n is the Hill coefficient (slope factor); and a2 is the response value at the maximal inhibition (% of control).
Figure 2 The inhibitory activity of sevanol (s706) and its analogues. Currents were elicited by a drop from pH 7.4 to 5.5; the holding potential was −50 mV; (A,C) are dose–response curves for s706, s590 and EA inhibitory effects on ASIC1a and ASIC3 channels, respectively; (B,D) are reciprocal IC50 values for s706, s590 and EA inhibitory effects on ASIC1a and ASIC3 channels, respectively. The data were fitted by the logistic equation. Each point is the mean ± SEM of 5–6 measurements. * p < 0.05, ** p < 0.005.

Structure (SMILES): O=C(O)CC(C(=O)O)C(OC(=O)C1=Cc2cc(O)c(O)cc2C(c2ccc(O)c(O)c2)C1C(=O)OC(C(=O)O)C(CC(=O)O)C(=O)O)C(=O)O (centres unmarked) [sevanol]
- dose at which reversal of CFA-induced thermal hyperalgesia reached statistical significance, i.n. (ICR male mice; intranasal): 1 mg/kg
- dose at which reversal of CFA-induced thermal hyperalgesia reached statistical significance, i.v. (ICR male mice; intravenous): 1 mg/kg
- dose at which reversal of CFA-induced thermal hyperalgesia was statistically significant, p.o. (ICR male mice; oral): 0.1 mg/kg
- IC50 (rat ASIC1a; X. laevis oocytes, pH drop 7.4 to 5.5, holding potential −50 mV, mean ± SEM of 5–6, read-out: IC50, inhibition of ASIC1a current): 228 ± 37.4 µM
- maximal current block, ASIC1a (rat ASIC1a; pH 7.4 to 5.5, effect reversible): 100%
